Entries after “also recorded” stand apart in the source; their conditions may differ.
Experiments:
Assay type in all cases: physicochemical
[1] = Process stability of nitisinone in acetone, in water and on drying (HPLC purity)
Procedure: It is a requirement of GMP manufacturing that the final recrystallisation includes a filtration through a polishing filter to remove particulates, and so the GMP process would involve filtration of the hot acetone solution. This means that it is likely that the solution of Nitisinone in acetone at 45° C. could be held at elevated temperature for a prolonged period of time. The stability of stage 1 at 45° C. was tested over a 6 hour period to confirm that the Nitisinone would not degrade under these conditions (Table 4). […] Therefore, acetone could be used in the hot filtration step of the GMP process.
On scale-up, drying from water can often take much longer than on lab scale and could potentially result in degradation of the product, especially with a product that could potentially be prone to hydrolysis. Following filtration of Nitisinone from the final recrystallisation, the filter-cake was washed with water to remove the residual mother liquors. Due to its high solubility in acetone and other organic solvents, a solvent wash was not appropriate as high yield losses would likely be incurred. A water wash also helped remove residual inorganics. Drying studies were therefore carried out to determine the stability of the recrystallised material and try to ensure that there would be no unexpected degradation during the drying phase of the scale-up manufacture (Table 5).
Two separate batches were heated over a 60 hour period with purity and KF values taken (entries 1-10). […] A sample of Nitisinone was suspended in water and heated at 40° C. with no vacuum for 60 hours (entries 11-13), to simulate poor drying. […] A second sample was wetted each morning and dried under vacuum overnight to study the effect of repeatedly wetting and drying the sample (entries 14-19).

[2] = Excipient compatibility: nitisinone mixed with fillers/lubricants, stored at 40° C./75% RH, cyclised impurity by HPLC
Procedure: In order to identify suitable excipients to develop a temperature stable formulation, 4 standard fillers and 5 lubricants were mixed with nitisinone and stored under accelerated conditions for 1 week and 3 weeks. 10 preparations for each excipient were prepared by weighing approximately 10 mg of nitisinone and 500 mg of the excipient into a glass vial and mixing together by gentle swirling. To 5 lots of preparations, 50 μl of water was added to wet the sample. For a control, 10 preparations of the drug substance were prepared by weighing approximately 10 mg nitisinone into a suitable glass vial and to 5 lots of preparations, 50 μl of water was added to wet the sample.
HPLC analysis was used to quantify the relative amount of the cyclised impurity (RRT 0.7) for each formulation at each time point (Tables 7 and 8).
(§1) In the foregoing examples, the HPLC conditions were as follows: […]

[3] = API stability study of nitisinone under long-term and accelerated storage (HPLC)
Procedure: Data provided by the stability testing programme was conducted with the substance under investigation stored in the actual packaging used for storage and distribution. This was to determine if the substance remained compliant with the ICH specification criteria when tested over the period of its shelf life plus one year.
A sample of approximately 150 g of substance was used for the testing programme, with individual samples being approximately 7 g in size. The test was designed to simulate the product package, i.e. the sample was packed in a polythene bag, sealed and then placed inside another polythene bag liner. The sample was then held in a fibreboard cask with a fibreboard lid.
The sample was stored in an incubator maintained at 25° C.±2° C./60%±5% relative humidity (RH), and 40° C.±2° C./75%±5% RH.
After testing of an initial sample, a sample was tested at certain time intervals (Table 6), i.e. monthly (0 m, 1 m, 2 m, etc.).
There was no decrease in purity and the cyclised impurity remained below the identification threshold (0.10%) throughout the stability testing (measured by HPLC).
as §1

SMILES: O=C1CCCC(=O)C1C(=O)c1ccc(C(F)(F)F)cc1[N+](=O)[O-] [Nitisinone, 2-[2-nitro-4-(trifluoromethyl)benzoyl] cyclohexane-1,3-dione]
- stability of stage 1 nitisinone in acetone (purity, in words) ([1]; acetone, 45° C., over a 6 hour period): No loss of purity was observed
- stability of Nitisinone in water (purity, in words) ([1]; suspended in water, heated at 40° C., no vacuum, 60 hours): No loss of purity was observed
- stability of recrystallised Nitisinone to extended drying (purity, in words) ([1]; two batches heated over a 60 hour period): little to no loss in purity
- Cyclised Impurity - RRT 0.7 ([2]; 1 week, Dry): 0.02 norm %
- Cyclised Impurity - RRT 0.7 ([2]; 1 week, Wet (50 μl water)): 0.07 norm %
- Cyclised Impurity - RRT 0.7 ([2]; 3 weeks, Dry): 0.13 norm %
- Cyclised Impurity - RRT 0.7 ([2]; 3 weeks, Wet (50 μl water)): 0.20 norm %
- Cyclised Impurity - RRT 0.7 ([2]; Initial, about 10 mg nitisinone + 500 mg excipient): 0.01 norm %
- API stability with respect to cyclised impurity (in words) ([3]; 25° C./60% RH and 40° C./75% RH, listed as API): no formation of the aforementioned cyclised impurity was observed; also recorded: no deviation from specification
- Stability of API over time ([3]; 25° C./60% RH, 0 m): 99.90% w/w
- Stability of API over time ([3]; 25° C./60% RH, 1 m): 99.87% w/w
- Stability of API over time ([3]; 25° C./60% RH, 2 m): 99.88% w/w
- Stability of API over time ([3]; 25° C./60% RH, 3 m): 99.91% w/w
- Stability of API over time ([3]; 25° C./60% RH, 6 m): 99.91% w/w
- Stability of API over time ([3]; 40° C./75% RH, 0 m): 99.90% w/w
- Stability of API over time ([3]; 40° C./75% RH, 1 m): 99.89% w/w
- Stability of API over time ([3]; 40° C./75% RH, 2 m): 99.88% w/w
- Stability of API over time ([3]; 40° C./75% RH, 3 m): 99.92% w/w
- Stability of API over time ([3]; 40° C./75% RH, 6 m): 99.96% w/w

From patent US10328029B2, “Pharmaceutical composition” (Cycle Pharmaceuticals, priority 2014, dated 2019)
